Reference: ChEMBL document CHEMBL1131749, “Landomycin A inhibits DNA synthesis and G1/S cell cycle progression” (1999)

Columns and labels:
Type in all cases: functional
[1] = species: Mus musculus; test: Inhibition of uptake of [3H]-thymidine into DNA by murine smooth cells at a concentration of 80 nM after 20 hours
[2] = species: Mus musculus; test: Inhibition of uptake of [3H]thymidine into DNA by murine smooth cells at a concentration of 200 nM after 24 hours
[3] = species: Mus musculus; test: Inhibition of uptake of [3H]thymidine into DNA by murine smooth cells at a concentration of 200 nM after 16 hours
[4] = species: Mus musculus; test: Inhibition of uptake of [3H]thymidine into DNA by murine smooth cells at a concentration of 80 nM after 16 hours
[5] = species: Mus musculus; test: Inhibition of uptake of [3H]thymidine into DNA by murine smooth cells at a concentration of 80 nM after 24 hours
[6] = species: Mus musculus; test: Inhibition of uptake of [3H]thymidine into DNA by murine smooth cells at a concentration of 20 nM after 20 hours
[7] = species: Mus musculus; test: Inhibition of uptake of [3H]thymidine into DNA by murine smooth cells at a concentration of 20 nM after 16 hours
[8] = species: Mus musculus; test: Inhibition of uptake of [3H]thymidine into DNA by murine smooth cells at a concentration of 20 nM after 24 hours
[9] = species: Mus musculus; test: Inhibition of uptake of [3H]thymidine into DNA by murine smooth cells at a concentration of 200 nM after 20 hours

Cc1cc(O)c2c(c1)C[C@@H](O)C1=C2C(=O)c2c(O)ccc(O[C@H]3C[C@@H](O)[C@H](O[C@H]4C[C@@H](O[C@H]5CC[C@H](O[C@H]6C[C@@H](O)[C@H](O[C@H]7C[C@@H](O[C@H]8CC[C@H](O)[C@H](C)O8)[C@H](O)[C@@H](C)O7)[C@@H](C)O6)[C@H](C)O5)[C@H](O)[C@@H](C)O4)[C@@H](C)O3)c2C1=O [LANDOMYCIN A]
Inhibition [1]: 30000 c.p.m./Abs | Inhibition [2]: 20000 c.p.m./Abs | Inhibition [3]: 0 c.p.m./Abs | Inhibition [4]: 5000 c.p.m./Abs | Inhibition [5]: 60000 c.p.m./Abs | Inhibition [6]: 45000 c.p.m./Abs | Inhibition [7]: 10000 c.p.m./Abs | Inhibition [8]: 65000 c.p.m./Abs | Inhibition [9]: 5000 c.p.m./Abs
